Where two headings read alike, the source gives them in different places. Values belong to the compound of their own block, whether it stands above or below them.
Tests used:
[1] = Critical micelle concentration and surface tension measurement (tensiometer, Pt plate); format: physicochemical; conditions: for CMC / γmin: room temperature; for CMC: DI water; for γmin: DI water (calibrated to 72.7±0.2 mN/m); for behavior in terms of CMC compared with Compound 1 / behavior in terms of interfacial tension (γ) reduction compared with Compound 1: photoisomers of Compound 1
Procedure: To characterize the behavior of the compounds of this invention as surfactants, surface tension can be plotted as a function of concentration and critical micelle concentrations (CMCs) of these surfactants can be calculated. In addition, the hydrophobic-lipophilic balance (HLB) of a surfactant can be calculated according to Griffin's Method. See e.g., Pasquali, R. C.; Taurozzi, M. P.; Bregni, C. Int. J. Pharm.
The CMC for compounds of the invention is determined using known methods in the art.
See, e.g., Pasquali, R. C.; Taurozzi, M. P.; Bregni, C. Int. J. Pharm. […] 14.

[2] = O-alkylglucoside reference, see Rybinski and Hill 1998; cited from earlier work
[3] = Ross-Miles foam test (ASTM D1173); format: physicochemical; conditions: for foam enhancing and stabilizing capability compared with Compound 1: photoisomers of Compound 1

- CMC [1]: 0.1 mM
- γmin [1]: 28 mN/m
SMILES: CCCCCCCCCCC/C=C/C(=O)C[C@@H]1O[C@H](CO)[C@@H](O)[C@H](O)[C@H]1O [Compound 1, (E)-1-((2S,3R,4R,5S,6R)-3,4,5-trihydroxy-6-(hydroxymethyl)tetrahydro-2H-pyran-2-yl)pentadec-3-en-2-one]

- CMC [1]: 3.9 mM
- γmin [1]: 24 mN/m
SMILES: CCCCC/C=C/C(=O)C[C@@H]1O[C@H](CO)[C@@H](O)[C@H](O)[C@H]1O [Compound 46, (E)-1-((2S,3R,4R,5S,6R)-3,4,5-trihydroxy-6-(hydroxy-methyl)tetrahydro-2H-pyran-2-yl)non-3-en-2-one]

SMILES: CCCCCCCCCCCCO[C@@H]1O[C@H](CO)[C@@H](O)[C@H](O)[C@H]1O [Dodecyl-AG]
- CMC [2]: 0.17 mM
- γmin [2]: 24 mN/m

SMILES: CCCCCCCCO[C@@H]1O[C@H](CO)[C@@H](O)[C@H](O)[C@H]1O [Octyl-AG]
- CMC [2]: 18.0 mM
- γmin [2]: 24 mN/m

- behavior in terms of CMC compared with Compound 1 [1]: substanitally the same behavior
- behavior in terms of interfacial tension (γ) reduction compared with Compound 1 [1]: substanitally the same behavior
- foam enhancing and stabilizing capability compared with Compound 1 [3]: substanitally the same behavior
SMILES: CCCCCCCCCC/C=C/CC(=O)C[C@@H]1OC(CO)[C@@H](O)[C@H](O)C1O (some centres unmarked) [Compound 47]

- CMC [1]: 52.2 mM
- γmin [1]: 30 mN/m
SMILES: CCCC1CC(=O)C([C@@H]2O[C@H](CO)[C@@H](O)[C@H](O)[C@H]2O)=CC1CC (stereo partly drawn) [Compound 2, 4-ethyl-5-propyl-2-((2S,3R,4R,5S,6R)-3,4,5-trihydroxy-6-(hydroxymethyl)tetrahydro-2H-pyran-2-yl)cyclohex-2-enone]

SMILES: CCCCCC1CC(=O)C([C@@H]2O[C@H](CO)[C@@H](O)[C@H](O)[C@H]2O)=CC1CCCC (stereo partly drawn) [Compound 3, 4-butyl-5-pentyl-2-((2S,3R,4R,5S,6R)-3,4,5-trihydroxy-6-(hydroxymethyl)tetrahydro-2H-pyran-2-yl)cyclohex-2-enone]
- reduction in Interfacial Tension (IFT) ([1]; comparison of CMC curves between series, FIG. 1): greatest reduction in Interfacial Tension (IFT)
- estimated CMC ([1]; estimated from point of inflection of CMC curve, FIG. 1): very low
- CMC [1]: 0.17 mM
- γmin [1]: 22 mN/m
- foaming properties when combined with SDS ([3]; combined with SDS as a 20% solution, compared with SDS alone): exceeded that of SDS alone
- foam height over 5 minutes when combined with SDS ([3]; combined with SDS as a 20% solution, over 5 minutes): remained unchanged
- excess foam after 5 minutes ([3]; surfactant alone, after 5 minutes, FIG. 2): virtually no excess foam

- behavior in terms of CMC compared with Compound 1 [1]: substanitally the same behavior
- behavior in terms of interfacial tension (γ) reduction compared with Compound 1 [1]: substanitally the same behavior
- foam enhancing and stabilizing capability compared with Compound 1 [3]: substanitally the same behavior
SMILES: CCCCCCCCCC/C=C\CC(=O)C[C@@H]1OC(CO)[C@@H](O)[C@H](O)C1O (some centres unmarked) [Compound 48]
